The data set in a line: solubility of the calcium salt in aqueous methanol / methanol. Format: physicochemical.

`CC(C)c1nc(N(C)S(C)(=O)=O)nc(-c2ccc(F)cc2)c1/C=C/[C@@H](O)C[C@@H](O)CC(=O)[O-].CC(C)c1nc(N(C)S(C)(=O)=O)nc(-c2ccc(F)cc2)c1/C=C/[C@@H](O)C[C@@H](O)CC(=O)[O-].[Ca+2]` [formula (1a), rosuvastatin calcium]: the “solubility in an aqueous methanol” value was “freely soluble” (calcium salt prepared by the present invention (calcium acetate as calcium source)) and “poor solubility” (calcium salt prepared by the prior art process (U.S. Pat. No. 5,260,440; sodium chloride byproducts)).

Source of the values: patent US8455640B2, “Process for statins and its pharmaceutically acceptable salts thereof” (MSN Laboratories Limited, priority 2006, dated 2013).
